Measured values from patent US9981969B2, “Imidazole derivatives and methods of use thereof for improving the pharmacokinetics of a drug” (MERCK SHARP & DOHME CORP., priority 2013, dated 2018).

Key:
[1] = molecular target: T1, CYP3A4 (Homo sapiens, UniProt P08684); experiment: Cocktail assay for CYPs in human liver microsomes, midazolam 1′-hydroxylation (3A4); type: biochemical; details: 2 μM midazolam, 10 min at 37° C.
T1 construct: 0.1 mg/mL protein human liver microsomes (BD Gentest); tissue BD Gentest; host or cells: human liver microsomes
T1 sequence (P08684 whole entry): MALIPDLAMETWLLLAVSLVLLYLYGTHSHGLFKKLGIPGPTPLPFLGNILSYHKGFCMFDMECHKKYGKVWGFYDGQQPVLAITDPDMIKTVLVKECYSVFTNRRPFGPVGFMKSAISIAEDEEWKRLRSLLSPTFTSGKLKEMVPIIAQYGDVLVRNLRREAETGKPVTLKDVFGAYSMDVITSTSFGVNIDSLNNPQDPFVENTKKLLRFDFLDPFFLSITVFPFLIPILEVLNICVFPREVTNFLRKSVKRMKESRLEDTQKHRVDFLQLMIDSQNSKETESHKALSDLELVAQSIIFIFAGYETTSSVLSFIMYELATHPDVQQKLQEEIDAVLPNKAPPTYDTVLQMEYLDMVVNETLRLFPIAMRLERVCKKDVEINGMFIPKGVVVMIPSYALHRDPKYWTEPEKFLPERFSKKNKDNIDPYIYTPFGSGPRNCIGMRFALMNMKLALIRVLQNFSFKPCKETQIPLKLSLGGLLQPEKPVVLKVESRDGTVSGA
Outline: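 CYP3A4 inhibition was measured in human liver microsomes (0.1 mg/mL protein) with 2 μM midazolam as the probe substrate, 1 mM NAPDH, 3.3 mM MgCl2 and 100 mM potassium phosphate buffer (pH 7.4), incubated 10 min at 37° C. After acetonitrile treatment, metabolite was quantified by LC/MS/MS against a tolbutamide internal standard. Percent inhibition at 6 concentrations gave IC50 by SigmaPlot non-linear regression.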

[2] = molecular target: T2, CYP1A2 (Homo sapiens, UniProt P05177); experiment: Cocktail assay for CYPs in human liver microsomes, phenacetin O-deethylation (1A2); type: biochemical; details: 10 μM phenacetin, 10 min at 37° C.
T2 construct: 0.1 mg/mL protein human liver microsomes (BD Gentest); tissue BD Gentest; host or cells: human liver microsomes
T2 sequence (P05177 1-516): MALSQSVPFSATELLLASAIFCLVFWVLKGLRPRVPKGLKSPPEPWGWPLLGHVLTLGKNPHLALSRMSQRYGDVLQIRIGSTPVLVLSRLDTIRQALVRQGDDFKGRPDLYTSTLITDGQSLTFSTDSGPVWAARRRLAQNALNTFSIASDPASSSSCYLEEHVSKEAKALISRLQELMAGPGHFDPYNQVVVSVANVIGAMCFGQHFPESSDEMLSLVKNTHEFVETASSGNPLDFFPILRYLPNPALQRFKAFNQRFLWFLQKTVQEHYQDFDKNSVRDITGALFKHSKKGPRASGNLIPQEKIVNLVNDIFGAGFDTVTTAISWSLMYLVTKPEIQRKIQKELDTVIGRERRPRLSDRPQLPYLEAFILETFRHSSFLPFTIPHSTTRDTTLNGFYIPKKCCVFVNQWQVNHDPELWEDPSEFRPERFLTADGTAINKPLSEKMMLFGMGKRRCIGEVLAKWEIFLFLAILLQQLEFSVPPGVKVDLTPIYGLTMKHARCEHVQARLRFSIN
Outline: (§1)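 Pooled human liver microsomes (0.1 mg/mL) with substrate cocktail (10 μM phenacetin, 5 μM diclofenac, 30 μM mephenytoin, 5 μM dextromethorphan), 1 mM NADPH, pH 7.4 phosphate, 10 min at 37 °C. Metabolites by LC/MS/MS; IC50 from % inhibition at 6 concentrations up to 10 μM.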

[3] = molecular target: T3, CYP2C9 (Homo sapiens, UniProt P11712); experiment: Cocktail assay for CYPs in human liver microsomes, diclofenac 4′-hydroxylation (2C9); type: biochemical; details: 5 μM diclofenac, 10 min at 37° C.
T3 construct: 0.1 mg/mL protein human liver microsomes (BD Gentest); tissue BD Gentest; host or cells: human liver microsomes
T3 sequence (P11712 whole entry): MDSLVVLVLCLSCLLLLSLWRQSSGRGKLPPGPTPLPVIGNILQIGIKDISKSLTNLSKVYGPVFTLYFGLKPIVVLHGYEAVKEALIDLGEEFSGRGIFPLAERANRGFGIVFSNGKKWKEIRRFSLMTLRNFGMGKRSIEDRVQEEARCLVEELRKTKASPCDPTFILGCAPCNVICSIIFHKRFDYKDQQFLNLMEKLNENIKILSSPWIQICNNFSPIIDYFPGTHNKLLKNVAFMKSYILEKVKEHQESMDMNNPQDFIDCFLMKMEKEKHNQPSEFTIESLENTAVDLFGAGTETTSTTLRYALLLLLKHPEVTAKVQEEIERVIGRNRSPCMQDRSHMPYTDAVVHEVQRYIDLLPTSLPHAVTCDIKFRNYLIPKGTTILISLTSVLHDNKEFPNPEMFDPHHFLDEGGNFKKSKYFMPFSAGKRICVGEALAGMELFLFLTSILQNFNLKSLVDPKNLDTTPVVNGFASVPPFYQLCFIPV
Outline: as §1

[4] = molecular target: T4, CYP2C19 (Homo sapiens, UniProt P33261); experiment: Cocktail assay for CYPs in human liver microsomes, mephenytoin 4′-hydroxylation (2C19); type: biochemical; details: 30 μM mephenytoin, 10 min at 37° C.
T4 construct: 0.1 mg/mL protein human liver microsomes (BD Gentest); tissue BD Gentest; host or cells: human liver microsomes
T4 sequence (P33261 whole entry): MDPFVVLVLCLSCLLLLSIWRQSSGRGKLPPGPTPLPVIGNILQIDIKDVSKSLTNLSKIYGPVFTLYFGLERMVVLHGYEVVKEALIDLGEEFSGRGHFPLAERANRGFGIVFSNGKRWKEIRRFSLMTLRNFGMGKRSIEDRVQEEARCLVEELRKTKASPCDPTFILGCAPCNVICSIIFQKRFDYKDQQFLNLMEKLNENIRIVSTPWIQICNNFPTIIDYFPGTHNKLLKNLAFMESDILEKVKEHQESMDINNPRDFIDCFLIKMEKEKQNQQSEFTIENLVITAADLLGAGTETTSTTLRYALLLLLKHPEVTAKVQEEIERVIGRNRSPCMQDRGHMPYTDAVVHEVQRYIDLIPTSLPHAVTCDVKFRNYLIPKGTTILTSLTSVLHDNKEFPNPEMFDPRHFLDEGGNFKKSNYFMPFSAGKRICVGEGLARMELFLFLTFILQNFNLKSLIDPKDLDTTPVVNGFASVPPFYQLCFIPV
Outline: as §1

[5] = molecular target: T5, CYP2D6 (Homo sapiens, UniProt P10635); experiment: Cocktail assay for CYPs in human liver microsomes, dextromethorphan O-demethylation (2D6); type: biochemical; details: 5 μM dextromethorphan, 10 min at 37° C.
T5 construct: 0.1 mg/mL protein human liver microsomes (BD Gentest); tissue BD Gentest; host or cells: human liver microsomes
T5 sequence (P10635 whole entry): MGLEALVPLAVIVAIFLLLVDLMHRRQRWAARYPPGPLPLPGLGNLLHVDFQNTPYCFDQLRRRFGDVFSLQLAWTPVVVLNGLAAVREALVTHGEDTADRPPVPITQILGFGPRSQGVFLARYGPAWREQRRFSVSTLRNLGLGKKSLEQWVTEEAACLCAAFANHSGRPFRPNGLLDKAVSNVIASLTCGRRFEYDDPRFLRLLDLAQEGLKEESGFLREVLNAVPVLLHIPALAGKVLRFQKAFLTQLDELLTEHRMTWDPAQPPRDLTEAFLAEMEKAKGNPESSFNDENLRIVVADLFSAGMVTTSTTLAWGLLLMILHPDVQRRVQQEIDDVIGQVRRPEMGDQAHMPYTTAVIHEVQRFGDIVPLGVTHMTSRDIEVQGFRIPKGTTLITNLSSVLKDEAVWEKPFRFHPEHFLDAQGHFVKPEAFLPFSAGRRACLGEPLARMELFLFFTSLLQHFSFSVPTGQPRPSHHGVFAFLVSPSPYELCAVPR
Outline: as §1

[6] = molecular target: T6, human CYP11B1 (Homo sapiens, UniProt P15538); experiment: IC50 vs CYP11B1 by measurement of cortisol synthesis in V79 cells; type: cell-based; details: V79 cells expressing human CYP11B1, 1500 nM RSS, cortisol HTRF
T6 construct: expressed in transfected cells
T6 sequence (P15538 25-503): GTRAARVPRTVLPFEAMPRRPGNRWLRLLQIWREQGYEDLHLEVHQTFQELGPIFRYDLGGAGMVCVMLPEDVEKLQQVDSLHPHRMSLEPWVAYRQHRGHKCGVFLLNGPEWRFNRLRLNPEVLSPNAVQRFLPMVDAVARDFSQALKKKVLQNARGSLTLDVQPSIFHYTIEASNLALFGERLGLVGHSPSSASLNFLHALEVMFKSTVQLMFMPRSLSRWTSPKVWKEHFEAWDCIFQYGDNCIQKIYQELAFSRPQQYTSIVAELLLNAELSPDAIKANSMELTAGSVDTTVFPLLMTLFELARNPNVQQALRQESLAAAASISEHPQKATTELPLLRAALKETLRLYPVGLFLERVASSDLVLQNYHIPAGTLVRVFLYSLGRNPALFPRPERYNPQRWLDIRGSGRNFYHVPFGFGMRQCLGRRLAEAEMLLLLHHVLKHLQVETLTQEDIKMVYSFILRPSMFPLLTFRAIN
Outline: (§2)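 V79 cells stably expressing CYP11B1 or CYP11B2 were treated with test compound at 10 concentrations (e.g. 10000 down to 0.5 nM), with 1500 nM RSS (CYP11B1) or 750 nM DOC (CYP11B2) as substrate. After ~15 h at RT in the dark, supernatant cortisol/aldosterone was measured by HTRF and back-calculated from a standard curve. IC50 was taken as the inflection point of a four-parameter fit.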

[7] = molecular target: T7, human CYP11B2 (Homo sapiens, UniProt P19099); experiment: IC50 vs CYP11B2 by measurement of aldosterone synthesis in V79 cells; type: cell-based; details: V79 cells expressing human CYP11B2, 750 nM DOC, aldosterone HTRF
T7 construct: expressed in transfected cells
T7 sequence (P19099 25-503): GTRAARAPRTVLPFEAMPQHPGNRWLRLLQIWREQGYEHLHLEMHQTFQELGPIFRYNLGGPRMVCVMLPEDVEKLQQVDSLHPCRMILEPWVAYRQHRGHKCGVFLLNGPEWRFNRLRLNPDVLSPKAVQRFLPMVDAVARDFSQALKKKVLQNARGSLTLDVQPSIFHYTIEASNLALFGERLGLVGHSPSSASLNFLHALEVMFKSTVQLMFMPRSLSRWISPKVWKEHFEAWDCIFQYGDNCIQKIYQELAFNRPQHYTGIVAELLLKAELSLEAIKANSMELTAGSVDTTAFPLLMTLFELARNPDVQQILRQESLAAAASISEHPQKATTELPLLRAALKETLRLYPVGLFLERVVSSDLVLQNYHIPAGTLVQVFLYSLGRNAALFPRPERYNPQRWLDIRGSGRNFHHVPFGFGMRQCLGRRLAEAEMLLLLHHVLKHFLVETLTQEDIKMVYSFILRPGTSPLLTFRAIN
Outline: as §2

| Structure (SMILES) | IC50 [1] [µM] | IC50 [2] [µM] | IC50 [3] [µM] | IC50 [4] [µM] | IC50 [5] [µM] | IC50 [6] [µM] | IC50 [7] [µM] |
| --- | --- | --- | --- | --- | --- | --- | --- |
| C[C@@H](c1ccccc1CN1CCC(F)CC1)n1cncc1C(=O)N1CCC2NCCO[C@@H]2C1 (some centres unmarked) [Compound 45] | 0.0077 | > 10 | > 10 | > 10 | > 10 | > 50 | > 50 |
| C[C@@H](c1ccccc1C(C)(C)F)n1cncc1C(=O)N1CCC2NCCO[C@@H]2C1 (some centres unmarked) [Compound 46] | 0.0109 | > 10 | > 10 | > 10 | 5.8 | > 50 | 23.1 |
| CC(C)c1ccccc1[C@H](C)n1cncc1C(=O)N1CCC2NCCO[C@@H]2C1 (some centres unmarked) [Compound 47] | 0.0085 | > 10 | > 10 | > 10 | 9.25 | 45.3 | 9.02 |
| C[C@@H](c1ccccc1C1CCCC1)n1cncc1C(=O)N1CCC2NCCO[C@@H]2C1 (some centres unmarked) [Compound 48] | 0.0055 | > 10 | > 10 | > 10 | > 10 | 11.3 | 15.5 |
| C[C@@H](c1ccccc1-c1ccc(F)cc1)n1cncc1C(=O)N1CCC(F)(CN2CCOCC2)CC1 [Compound 49] | 0.0037 | > 10 | > 10 | 9.54 | ≥ 10 | 6.03 | 36.3 |
| C[C@@H](c1ccccc1-c1ccc(F)cc1)n1cncc1C(=O)N1CCC2NC(=O)COC2(C)C1 (some centres unmarked) [Compound 51] | 0.0048 | > 10 | > 10 | > 10 | > 10 | 20.8 | > 50 |
| C[C@@H](c1ccccc1-c1ccc(F)cc1)n1cncc1C(=O)N1CCC[C@H]2OCCN[C@@H]2C1 [Compound 52] | 0.0032 | > 10 | > 10 | > 10 | > 10 | 3.93 | > 50 |
| C[C@@H](c1ccccc1-c1ccc(F)cc1)n1cncc1C(=O)N1CCC[C@@H]2OCCN[C@H]2C1 [Compound 53] | 0.011 | > 10 | > 10 | > 10 | > 10 | 16.4 | > 50 |
